Source: US5547975A, “Benzopyranopyrazolyl derivatives for the treatment of inflammation” (priority 1994, dated 1996)

Experiments:
[1] = test system: carrageenan-induced hyperalgesic foot withdrawal; experiment: Rat Carrageenan-induced Analgesia Test; format: in vivo, rat (male Sprague-Dawley); settings: oral, @ 30 mg/ka body weight, 3 hours after carrageenan injection
Protocol: Rat Carrageenan-induced Analgesia Test
The analgesia test using rat carrageenan was performed with materials, reagents and procedures essentially as described by Hargreaves, et al., (Pain, 32, 77 (1988)). Male Sprague-Dawley rats were treated as previously described for the Carrageenan Foot Pad Edema test. Three hours after the injection of the carrageenan, the rats were placed in a special plexiglass container with a transparent floor having a high intensity lamp as a radiant heat source, positionable under the floor. After an initial twenty minute period, thermal stimulation was begun on either the injected foot or on the contralateral uninjected foot. A photoelectric cell turned off the lamp and timer when light was interrupted by paw withdrawal. The time until the rat withdraws its foot was then measured. The withdrawal latency in seconds was determined for the control and drug-treated groups, and percent inhibition of the hyperalgesic foot withdrawal determined.

Human COX I = target: T1, Human COX I (Homo sapiens, UniProt P23219); experiment: Evaluation of COX I activity in vitro (recombinant enzyme, PGE2 ELISA); format: biochemical; settings: 10 μM arachidonic acid, pre-incubation 10-20 minutes, pH 8.0; read-out: Human COX I ID50
T1 construct: made in house; host or cells: SF9 insect cells, recombinant baculovirus (transfer vector pVL1393)
Excerpt: (§1) Evaluation of COX I and COX II activity in vitro
(§2) a. Preparation of recombinant COX baculoviruses
(§3) A 2.0 kb fragment containing the coding region of either human or murine COX-I or human or murine COX-II was cloned into a BamH1 site of the baculovirus transfer vector pVL1393 (Invitrogen) to generate the baculovirus transfer vectors for COX-I and COX-II in a manner similar to the method of D. R. O'Reilly et al (Baculovirus Expression Vectors: A Laboratory Manual (1992)). Recombinant baculoviruses were isolated by transfecting 4 μg of baculovirus transfer vector DNA into SF9 insect cells ([…]) along with 200 ng of linearized baculovirus plasmid DNA by the calcium phosphate method. See M. D. Summers and G. E. Smith, A Manual of Methods for Baculovirus Vectors and Insect Cell Culture Procedures, Texas Agric. Exp. Station Bull. 1555 (1987). Recombinant viruses were purified by three rounds of plaque purification and high titer (10E7-10E8 pfu/ml) stocks of virus were prepared. For large scale production, SF9 insect cells were infected in 10 liter fermentors (0.5×10^6 /ml) with the recombinant baculovirus stock such that the multiplicity of infection was 0.1. After 72 hours the cells were centrifuged and the cell pellet homogenized in Tris/Sucrose (50 mM: 25%, pH 8.0) containing 1% 3-[(3-cholamidopropyl)dimethylammonio]-1-propanesulfonate (CHAPS). The homogenate was centrifuged at 10,000'G for 30 minutes, and the resultant supernatant was stored at -80° C. before being assayed for COX activity.
(§4) b. Assay for COX I and COX II activity:
(§5) COX activity was assayed as PGE2 formed/μg protein/time using an ELISA to detect the prostaglandin released. CHAPS-solubilized insect cell membranes containing the appropriate COX enzyme were incubated in a potassium phosphate buffer (50 mM, pH 8.0) containing epinephrine, phenol, and heme with the addition of arachidonic acid (10 μM). Compounds were pre-incubated with the enzyme for 10-20 minutes prior to the addition of arachidonic acid. Any reaction between the arachidonic acid and the enzyme was stopped after ten minutes at 37° C./room temperature by transferring 40 μl of reaction mix into 160 μl ELISA buffer and 25 μM indomethacin. The PGE2 formed was measured by standard ELISA technology (Cayman Chemical).

Human COX II = target: T2, Human COX II (Homo sapiens, UniProt P35354); experiment: Evaluation of COX II activity in vitro (recombinant enzyme, PGE2 ELISA); format: biochemical; settings: 10 μM arachidonic acid, pre-incubation 10-20 minutes, pH 8.0; read-out: Human COX II ID50
T2 construct: made in house; host or cells: SF9 insect cells, recombinant baculovirus (transfer vector pVL1393)
T2 sequence (P35354 18-604): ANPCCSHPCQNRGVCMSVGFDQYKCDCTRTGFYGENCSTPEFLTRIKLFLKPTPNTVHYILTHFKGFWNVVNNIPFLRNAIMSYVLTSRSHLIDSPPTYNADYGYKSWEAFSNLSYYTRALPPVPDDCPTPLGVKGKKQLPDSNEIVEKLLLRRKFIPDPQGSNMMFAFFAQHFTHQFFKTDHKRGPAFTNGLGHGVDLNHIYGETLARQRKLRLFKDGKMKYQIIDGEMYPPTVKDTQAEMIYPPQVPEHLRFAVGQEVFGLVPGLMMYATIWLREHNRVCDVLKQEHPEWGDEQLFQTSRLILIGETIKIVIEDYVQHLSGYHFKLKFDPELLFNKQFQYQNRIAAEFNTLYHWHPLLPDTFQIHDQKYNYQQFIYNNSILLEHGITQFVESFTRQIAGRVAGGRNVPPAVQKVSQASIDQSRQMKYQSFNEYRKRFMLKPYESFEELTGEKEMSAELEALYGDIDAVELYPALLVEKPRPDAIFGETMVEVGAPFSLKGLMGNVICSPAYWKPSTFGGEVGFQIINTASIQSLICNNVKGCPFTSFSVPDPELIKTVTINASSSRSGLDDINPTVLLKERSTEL
Protocol: as §1
The COX II inhibition activity of the compounds of this invention illustrated in the Examples was determined by the following methods.
as §2, §3, §4, §5

[2] = test system: carrageenan foot pad edema (rat paw edema); experiment: Rat Carrageenan Foot Pad Edema Test; format: in vivo, rat (male Sprague-Dawley); settings: oral, @ 30 mg/ka body weight, 3 hours after carrageenan injection
Protocol: Rat Carrageenan Foot Pad Edema Test
Male Sprague-Dawley rats were selected in each group so that the average body weight was as close as possible. Rats were fasted with free access to water for over sixteen hours prior to the test. […] One hour later a subplantar injection of 0.1 mL of 1% solution of carrageenan/sterile 0.9% saline was administered and the volume of the injected foot was measured with a displacement plethysmometer connected to a pressure transducer with a digital indicator. Three hours after the injection of the carrageenan, the volume of the foot was again measured.

T1 sequence (P23219 24-599): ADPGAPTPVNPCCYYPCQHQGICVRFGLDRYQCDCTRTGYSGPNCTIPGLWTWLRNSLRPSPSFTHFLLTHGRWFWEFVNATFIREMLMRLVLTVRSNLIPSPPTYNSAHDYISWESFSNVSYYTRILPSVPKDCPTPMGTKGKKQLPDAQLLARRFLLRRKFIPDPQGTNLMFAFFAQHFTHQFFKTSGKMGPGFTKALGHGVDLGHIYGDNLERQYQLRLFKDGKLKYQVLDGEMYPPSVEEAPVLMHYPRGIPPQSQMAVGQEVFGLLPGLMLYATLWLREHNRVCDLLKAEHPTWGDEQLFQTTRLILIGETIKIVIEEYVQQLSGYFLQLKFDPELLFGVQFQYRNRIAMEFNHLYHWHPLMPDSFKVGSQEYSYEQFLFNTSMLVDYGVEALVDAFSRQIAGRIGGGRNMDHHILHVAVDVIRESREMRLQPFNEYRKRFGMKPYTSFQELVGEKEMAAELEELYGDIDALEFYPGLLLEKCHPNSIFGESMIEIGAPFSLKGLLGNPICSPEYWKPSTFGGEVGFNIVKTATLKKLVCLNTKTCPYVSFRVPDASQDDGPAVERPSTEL

SMILES | ANALGESIA % Inhibition [1] [%] | IC50 (Human COX I) [µM] | IC50 (Human COX II) [µM] | RAT PAW EDEMA % Inhibition [2] [%]
COc1ccc2c(c1F)CSc1c(C(F)(F)F)nn(-c3ccc(S(C)(=O)=O)cc3)c1-2 [Example 2, 1,5-Dihydro-6-fluoro-7-methoxy-1-[(4-methylsulfonyl)phenyl]-3-(trifluoromethyl)-[2]benzothiopyrano[4,3-c]pyrazole] | 29 | > 100 | < 0.1 | –
NS(=O)(=O)c1ccc(-n2nc(C(F)(F)F)c3c2-c2cc(Cl)sc2CS3)cc1 [Example 21, 4-[7-Chloro-1,5-dihydro-3-trifluoromethyl-thieno[3',2':4,5]thiopyrano[3,2-c]pyrazol-1-yl]benzenesulfonamide] | – | 8.7 | < 0.1 | 26
COc1ccc2c(c1F)CSCc1c(C(F)(F)F)nn(-c3ccc(S(N)(=O)=O)cc3)c1-2 [Example 30, 4-[4,6-dihydro-7-fluoro-8-methoxy-3-(trifluoromethyl)-[2]benzothiepino[5,4-c]pyrazol-1-yl]benzenesulfonamide] | – | 73.4 | 2.2 | –
